# According to patent publication US20230134760A1, “CAR AND NRF2 DUAL ACTIVATOR AGENTS FOR CYCLOPHOSPHAMIDE-BASED AND DOXORUBICIN-BASED TREATMENTS OF CANCER” (priority 2020, published 2023):
# Assays:
# hCAR or Nrf2 = assay: all curve and EC50 curve of selected compounds (FIG. 22-35); format: cell-based; details: for Emax: figure legend values
# Method: Cell lysates were assayed for luciferase activity and normalized against the activity of the Renilla luciferase using a Dual-Luciferase Kit (Promega). […] Compound 2, DL7076, was selected for further evaluation based on its effects in activating hCAR and Nrf2 using the HepG2 cell reporter assay (FIGS. 37a-37c).
# cleaved caspase-3 = assay: Cleaved caspase-3 Western blot in H9c2 cardiomyocytes; format: cell-based, rat; details: H9c2, DOX 2.5 μM
# Description: Protein was harvested using cell lysis buffer (Cell Signaling Technology, Danvers, Mass.) with a complete protease inhibitor cocktail (Roche, Mannheim, Germany) prior to homogenizing via sonification. Homogenized protein from treated HPH, H9c2, BT549, and MDA-MB-231 cells were resolved on NuPage Novex Bis-Tris 4-12% gels (Life Technologies) or NuPage Novex Bis-Tris 12% gel and transferred through electrophoresis onto immobilon-P polyvinylidene difluoride (PVDF) membranes. Membranes were blocked with 5% BSA or 5% milk in Tris-Buffer saline with Tween 20 (TBST). Further, membranes were incubated with specific antibodies against human CYP2B6 (1:1000, Abcam), CYP3A4 (1:1000, Millipore Sigma), HO-1 (1:1000, Abcam), cleaved caspase-3 (1:1000 Cell Signaling Technologies), Nrf2 (1:1000, Abcam), TATA-Binding Protein (1:500, Santa Cruz) β-actin (1:3000, Millipore Sigma) at 4° C. overnight. Following overnight incubation, horseradish peroxidase goat anti-mouse or anti-rabbit IgG antibodies were used for secondary incubation. Membranes were developed using SuperSignal West Pico Chemiluminescent Substrate (Thermo Scientific) or Radiance Q (Azure). Two TNBC cell lines, cardiomyocytes, and HPH protein samples were isolated and resolved on a 4-12% or 12% SDS PAGE gel followed by electrophoretic transfer to a PVDF membrane. Membranes were probed 1:1000 for CYP2B6, CYP3A4, Nrf2, cleaved caspase 3, and HO-1 using β-actin (1:3000) or TBP (1:500) as a loading control.
# H9c2 cells = assay: Oxidative stress imaging (DFDA) in H9c2 cells; format: cell-based, rat; details: H9c2, DOX 1, 2.5, 5 μM, 6 hours
# Method: H9c2 rat cardiomyocytes seeded at 0.8×10^5 in 24-well plates. […] Cells were washed 3× with PBS. Subsequently, 0.5 mL of WEM containing 20 μM 2'-7'-dichlorofluorescein diacetate (DFDA) was added to each well. The cells were incubated at 37° C. and 5% CO2 for 30 min. The oxidation of DFDA to the fluorescent dichlorofluorescein was viewed using fluorescence microscopy (Nikon Eclipse Ti) with a FITC filter at […] and quantified using Brightspot detection for fluorescent detection of triplicate images and normalized to the vehicle control (0.1% DMSO). Cells on coverslips from co-culture experiments were fixed using 4% paraformaldehyde and permealized using Triton-X 100. A primary antibody for mouse anti-phospho-H2AX ([…]) was incubated overnight. Goat anti-mouse IgG Fluor Alexa 488 (1:200) was incubated for 2 hrs. Phosphorylation was calculated through fluorescence intensity all normalized to the vehicle control.
# BT549 cells = assay: HPH/BT549 co-culture, CPA cytotoxicity (CCK8); format: cell-based; details: HPH/BT549 coculture, CPA 250, 500, 1000 μM, 48 hours
# Method: HPH were cultured in collagen-coated 24 well plates and pre-treated with vehicle control (0.1% DMSO), CITCO (1 μM) or DL7076 (5 μM or 10 μM) for 24 h. […] Following the 24 h pre-treatment, coverslips were combined in hepatocyte seeded wells and exposed to designated concentrations of cyclophosphamide in the presence or absence of DL7076 for various time intervals, as indicated.
# H9c2 cells were seeded 0.8×10^5 in 24-well plates. Following cell attachment, a 2 h pre-treatment with vehicle control (0.1% DMSO), SFN (2.5 μM) or DL7076 (1 μM, 5 μM, or 10 μM) was done followed by doxorubicin (2.5 μM) exposure for 22 h. Co-culture cells were assembled and treated with cyclophosphamide and doxorubicin as indicated. A Cell Counting Kit-8 (Enzo) assay was carried out. Cell viability was described as a percent of vehicle control (0.1% DMSO). Cardiomyocyte, human iPSC-derived cardiomyocytes, and BT549 viability was determined with a 1 hr incubation of 6% CCK8 in WEM.
"ROS (fluorescence intensity), DOX alone (H9c2 cells)",SMILES,EC50 (hCAR or Nrf2) [nM],Emax (hCAR or Nrf2),"cleaved caspase-3 expression, DOX alone (cleaved caspase-3)","BT549 viability, CPA alone (BT549 cells)"
,"O=C(NCC(N=C=S)c1ccccc1)c1c(-c2ccc3ccccc3c2)nc2occn12 (stereo not drawn) [DL7055-2, N-(2-Isothiocyanato-2-phenylethyl)-6-(naphthalen-2-yl)imidazo[2,1-b]oxazole-5-carboxamide]",19000 ± 80,6.2,,
,"O=C(NCCN=C=S)c1c(-c2ccc3ccccc3c2)nc2occn12 [DL7009, N-(2-Isothiocyanatoethyl)-6-(naphthalen-2-yl)imidazo[2,1-b]oxazole-5-carboxamide]",930,1.4,,
concentration dependently increases ROS,"COc1cccc2c1C(=O)c1c(O)c3c(c(O)c1C2=O)C[C@@](O)(C(=O)CO)C[C@@H]3O[C@H]1C[C@H](N)[C@H](O)[C@H](C)O1 [DOX, doxorubicin]",,,abundance in the expression of cleaved caspase-3,
,"O=C(NCCCN=C=S)c1c(-c2ccc3ccccc3c2)nc2occn12 [DL7087, N-(3-Isothiocyanatopropyl)-6-(naphthalen-2-yl)imidazo[2,1-b]oxazole-5-carboxamide]",1100 ± 430,1.27,,
,"O=P1(N(CCCl)CCCl)NCCCO1 (stereo not shown) [CPA, cyclophosphamide]",,,,decreased the viability of the BT549 cells in a concentration-dependent manner
,"CC(CNC(=O)c1c(-c2ccc3ccccc3c2)nc2occn12)N=C=S (stereo not drawn) [DL7092, N-(2-Isothiocyanatopropyl)-6-(naphthalen-2-yl)imidazo[2,1-b]oxazole-5-carboxamide]",32000,6.0,,
,"O=C(c1c(-c2ccc3ccccc3c2)nc2occn12)N1CCC(N=C=S)CC1 [DL7077, (4-Isothiocyanatopiperidin-1-yl)(6-(naphthalen-2-yl)imidazo[2,1-b]oxazol-5-yl)methanone]",4800 ± 210,1.8,,
,"O=C(NCCCCN=C=S)c1c(-c2ccc3ccccc3c2)nc2occn12 [DL7101, N-(4-Isothiocyanatobutyl)-6-(naphthalen-2-yl)imidazo[2,1-b]oxazole-5-carboxamide]",420,1.6,,
,"CC(CN=C=S)NC(=O)c1c(-c2ccc3ccccc3c2)nc2occn12 (stereo not drawn) [DL7091, N-(1-Isothiocyanatopropan-2-yl)-6-(naphthalen-2-yl)imidazo[2,1-b]oxazole-5-carboxamide]",4100,3.6,,
,"O=C(N[C@@H]1CCCC[C@H]1N=C=S)c1c(-c2ccc3ccccc3c2)nc2occn12 (stereo in doubt) [DL7096, N-((1R,2R)-2-Isothiocyanatocyclohexyl)-6-(naphthalen-2-yl)imidazo[2,1-b]oxazole-5-carboxamide]",330,1.1,,
